Values joined by “and” are separate entries in the source; they are usually repeats but may differ in a detail not shown here. Identical values can stand only once. Like-named read-outs stand apart in the source and are kept apart here.
Legend:
[1] = system: primary human hepatocytes (PHHs); settings: cited from earlier work
[2] = system: primary human hepatocytes (PHHs); settings: cited from earlier work; for Cytotoxicity: ATP assay, 24-h treatment
[3] = reported findings; ref References column of Table 1; cited from earlier work
[4] = cited from earlier work
[5] = reported findings; ref References column of Table 1; cited from earlier work; remark: listed apart in the source
[6] = system: primary macaque hepatocytes (PMHs); assay: Cytotoxicity by ATP assay; settings: for Max. con. / Cytotoxicity: PMH, 24-h treatment; for Max. con.: maximum concentration; for Cytotoxicity / cytotoxic effects (in words): ATP assay; for cytotoxic effects (in words): PMHs, 24-h exposure
[7] = system: primary macaque hepatocytes (PMHs); assay: CometChip assay
[8] = Cytotoxicity by ATP assay; settings: rhesus macaque, primary macaque hepatocytes (PMHs)
[9] = system: cynomolgus monkeys; settings: dosed cynomolgus monkeys; ref Thorgeirsson et al., 1995; cited from earlier work
[10] = system: primary macaque hepatocytes (PMHs); settings: rhesus macaque, 24 h
[11] = system: primary macaque hepatocytes (PMHs); settings: rhesus macaque, 24 h; remark: listed apart in the source
[12] = PHH, maximum concentration, ref Seo et al., 2020
[13] = reported findings, ref References column of Table 1

Cc1c2ccccc2c(C)c2c1ccc1ccccc12 [DMBA, 7,12-dimethylbenzanthracene]
BMD50 ([1]; PHH CometChip data reanalyzed using PROAST, ref Seo et al., 2020): 15.1 µM | BMDL50–BMDU50 ([1]; PHH, 90 % confidence interval of BMD50, ref Seo et al., 2020): 8.5 to 25.8 µM | Potency ranking ([1]; PHH, rank by BMD50 among nine positive compounds, ref Seo et al., 2020): 6 | LEC (lowest effective concentration) ([1]; PHH, lowest concentration positive in comet assay, ref Seo et al., 2020): 62.5 µM | BMDU/BMDL ([1]; PHH, ref Seo et al., 2020): 3.0 | DNA damage (ratio of %DNA in tail at highest concentration to vehicle control) ([1]; PHH, ref Seo et al., 2020): ++ (2 < ratio ≤ 5) | Cytotoxicity ([2]; PHH, ref Seo et al., 2020): − (cytotoxicity of 0–10 %) | Max. con. [2, 12]: 250 µM | Genotoxicity assay findings in vitro [3]: (+) for MLA, CA, MN, comet, and UDS | Genotoxicity assay findings in vivo [4, 13]: (+) for MN and Pig-a in blood, comet in liver, CA in BM, gene mutation | Carcinogenicity [5]: (+) for mammary liver, skin tumor, etc. | Max. con. [6]: 500 µM | Cytotoxicity [6]: + (11–30 %) | cytotoxic effects (in words) [6]: cytotoxic effects over the same range of concentrations, but only in PMHs | BMD50 fold higher in PHHs than in PMHs (lower in PMHs) ([7]; CometChip BMD50, PHH vs PMH): 3.8 fold and 3.75 fold | BMDU/BMDL ([7]; PMH): 2.4 | BMD50 ([7]; PMH CometChip data, PROAST exponential model): 4.0 µM | DNA damage (ratio of %DNA in tail at highest concentration to vehicle control) ([7]; PMH, 24-h treatment): +++ (the ratio > 5) | LEC (lowest effective concentration) ([7]; PMH, 24-h treatment, lowest concentration positive in comet assay): 31.25 µM | BMDL50–BMDU50 ([7]; PMH, 90 % confidence interval of BMD50): 2.6 to 6.1 µM | Potency ranking ([7]; PMH, rank by BMD50 among nine positive compounds): 3 | fold increase in % tail DNA (DNA damage) compared to the vehicle control ([7]; PMHs, highest acceptable concentration, range given for four compounds together): 6.1–8.1 fold | LEC fold higher in PHHs than in PMHs ([7]; comet assay LEC, PHH vs PMH): 2 fold

CCc1cc(C(N)=S)ccn1 [Ethionamide]
DNA damage (ratio of %DNA in tail at highest concentration to vehicle control) ([1]; PHH, ref Seo et al., 2020): − (The ratio ≤ 1.5-fold and p ≥ 0.05) | Cytotoxicity ([2]; PHH, ref Seo et al., 2020): + (11–30 %) | Max. con. [2, 12]: 2000 µM | Genotoxicity assay findings in vivo [4, 13]: (−) for comet | Carcinogenicity [5]: (−) in rats and mice | Max. con. [6]: 2000 µM | Cytotoxicity [6]: + (11–30 %)

Oc1ccc(O)cc1 [HQ, hydroquinone]
DNA damage (ratio of %DNA in tail at highest concentration to vehicle control) ([1]; PHH, ref Seo et al., 2020): − (The ratio ≤ 1.5-fold and p ≥ 0.05) | Cytotoxicity ([2]; PHH, ref Seo et al., 2020): ++ (31–50 %) | Max. con. [2, 12]: 200 µM | cell viability ([2]; PHHs, 200 μM, range given for cisplatin and HQ together, ref Seo et al., 2020): 55–63% | Genotoxicity assay findings in vitro [3]: (+) for MLA, MN, CA, comet | Genotoxicity assay findings in vivo [4, 13]: (+) for CA, MN; (−) for comet and TG in liver and stomach | Carcinogenicity [5]: (+) for liver and kidney adenoma | viability at 24 h, 200 µM [8]: 78 to 81% | Max. con. [6]: 200 µM | Cytotoxicity [6]: + (11–30 %)

Cn1c(N)nc2c3cccnc3ccc21 [IQ, 2-amino-3-methylimidazo-[4,5-f]-quinoline]
DNA adducts in several organs, particularly liver, kidney, and heart [9]: high levels of DNA adducts

COS(C)(=O)=O [MMS, methyl methanesulfonate]
BMDL50–BMDU50 [10]: 14.2 to 33.7 µM | BMDU/BMDL [10]: 2.4 | LEC (lowest effective concentration) [10]: 125 µM | Potency ranking [10]: 6 | Max. con. [11]: 500 µM | BMD50 [1]: 1.0 µM | BMDL50–BMDU50 [1]: 0.5 to 1.9 µM | BMDU/BMDL [1]: 3.5 | LEC (lowest effective concentration) [1]: 62.5 µM | Potency ranking [1]: 3 | Max. con. [2]: 500 µM | Genotoxicity assay findings in vivo ([4]; in vivo): (+) for CA, MN, UDS, Pig-a, TG, comet

Cn1c(N)nc2ncc(-c3ccccc3)cc21 [PhIP, 2-amino-1-me-thyl-6-phenylimidazo-[4,5-b]-pyridine]
DNA adducts in several organs, particularly liver, kidney, and heart [9]: high levels of DNA adducts

Oc1cccc(O)c1 [Resorcinol]
DNA damage (ratio of %DNA in tail at highest concentration to vehicle control) ([1]; PHH, ref Seo et al., 2020): − (The ratio ≤ 1.5-fold and p ≥ 0.05) | Cytotoxicity ([2]; PHH, ref Seo et al., 2020): ++ (31–50 %) | Max. con. [2, 12]: 2000 µM | Carcinogenicity [5]: (−) in rats and mice | Max. con. [6]: 1000 µM | Cytotoxicity [6]: ++ (31–50 %)

Nc1ccccc1C(=O)O [o-Anthranilic acid]
DNA damage (ratio of %DNA in tail at highest concentration to vehicle control) ([1]; PHH, ref Seo et al., 2020): − (The ratio ≤ 1.5-fold and p ≥ 0.05) | Cytotoxicity ([2]; PHH, ref Seo et al., 2020): − (cytotoxicity of 0–10 %) | Max. con. [2, 12]: 5000 µM | Genotoxicity assay findings in vivo [4, 13]: (−) for Pig-a, MN, CA, comet | Max. con. [6]: 5000 µM | Cytotoxicity [6]: ++ (31–50 %) | cytotoxic effects (in words) [6]: cytotoxic effects over the same range of concentrations, but only in PMHs | DNA damage (ratio of %DNA in tail at highest concentration to vehicle control) ([7]; PMH, 24-h treatment): − (The ratio ≤ 1.5-fold and p ≥ 0.05)
